These results are taken from patent US6984640B1, “Antiparasitic artemisinin derivatives (endoperoxides)” (Bayer Aktiengesellschaft, priority 1998, dated 2006).

What all share (assay type): cell-based
The test system of assay [1] is Plasmodium falciparum W2 strain (chloroquine resistant). As to the kind of experiment: In vitro screening against Plasmodium falciparum, 3H-hypoxanthine incorporation, W2 strain. To be noted: for In vitro activity: IC50 / In vitro activity: IC90 / In vitro activity: (IC10): 66 hours incubation. An excerpt:
(§1) Two parasite strains—W2 resistant to chloroquine, and D6 sensitive to chloroquine but resistant to mefloquine were used. In Table IV below, the best compounds should show no cross resistance between the two strains.
(§2) The assay relies on incorporation of radiolabelled hypoxanthine by the parasite and inhibition of incorporation is attributed to activity of known or candidate antimalarial drugs. For each assay, proven antimalarials such as chloroquine, mefloquine, quinine, artemisinin and pyrimethamine were used as controls. The incubation period was 66 hours, and the starting parasitemia was 0.2% with 1% hematocrit. The medium was an RPMI-1640 culture with no folate or p-aminobenzoic acid. Albumax rather than 10% normal heat inactivated human plasma was used as, with Albumax, less protein binding is observed, and compounds elicit slightly higher activities in this model. If a compound was submitted with no prior knowledge of activity, it was dissolved directly in dimethyl sulphoxide (DMSO), and diluted 400 fold with complete culture medium. The unknown compound was started at a maximum concentration of 50,000 ng ml^−1 and sequentially diluted 2-fold for 11 times to give a concentration range of […]. These dilutions were performed automatically by a Biomek 1000 Liquid Handling System in 96-well microtiter plates. The diluted drugs were then transferred to test plates, 200 μl of parasitized erythrocytes were added, and incubated at 37° C. in a controlled environment of 5% CO2, 5% O2 and 90% N2. After 42 hours, 25 μl of ^3H-hypoxanthine was added, and the plates incubated for an additional 24 hours. After 66 hours, the plates were frozen at −70° C. to lyse the red cells, and then thawed and harvested onto glass fiber filter mats in a 96-well harvester. The filter mats were then counted in a scintillation counter. For each drug, the concentration response profile was determined and 50%, 90% and 10% inhibitory concentrations (IC50 IC90 and IC10) were determined by a non-linear logistic dose response analysis program.
(§3) A prescreen format can be used wherein a 3-dilution assay may be used to determine activity at high medium or low concentrations. The concentrations were selected as 50,000, 500 and 50 ng ml^−1. These were performed in duplicate on a 96-well format plate with 14 test compounds and one known (standard) compound per plate. The system was automated with a Biomek diluter for mixing and diluting the drugs, and adding drugs and parasites to a test plate. In the prescreen format, if the ANALYSIS FIELD (AP) has a “<”, then the compound was “very active” and the IC values are most likely to be below the last dilution value (in nanograms/ml), which is listed next to AF. In most cases, these compounds were run again at lower starting concentration to determine the true IC value. If the AF has a “>”, then the IC value is greater than the prescreen dilution value; thus “AF>250” means that the IC value is greater than 250 ng ml^−1 and no further screening is carried out. In such cases, values of 0.00 are entered for IC values.

Assay [2] deals with Plasmodium falciparum D6 strain (chloroquine sensitive). As to the kind of experiment: In vitro screening against Plasmodium falciparum, 3H-hypoxanthine incorporation, D6 strain. The settings on record: 66 hours incubation.
Excerpt: as §1, §2, §3

Another assay has as its system Neospora caninum. As to the kind of experiment: Screening against Neospora caninum cell cultures in vitro (VERO or ED host cells). The settings on record: microscopic evaluation 4 days after treatment. Also noted: key: 0 = no effect monolayer completely destroyed; 1 = weak effect monolayer partly destroyed, parasite clumps can be seen; 2 = full effect monolayer intact, no tachyzoites observable; T = cytotoxic cells are dead, lysed. As for the experimental part:
Screening was conducted in 96-well plates (Falcon 3872). A monolayer of host cells (VERO or ED) were placed on a cell culture plate. Non-infected mono-layers of cells were cultured in two 50 ml tissue culture bottles ([…] cell culture area). The cell layer was detached with trypsin-EDTA (5 ml. Gibco 45300-019) in a CO2-culture cupboard at 37° C. After 10 minutes, most of the cells were detached. The cells were transferred with a 5 ml pipette into a 50 ml centrifuge tube (Greiner, B769331) containing about 1 ml warmed fetal calf serum. After centrifugation for 5 minutes at 1500 rpm (Varifuge 3.0, Heraeus), the liquid was removed and the cell pellet suspended in RPMI medium (100 ml, 95% RPMI 1640, 2% FCS, 1% L-glutamine, 1% sodium hydrogen carbonate, 1% penicillin/streptomycin). The cell suspension was pipetted into six 96-well plates at 150 μl per well. The coated cell culture plates were placed in an incubation cupboard at 37° C. under 5% CO2 for 24 hours. The cells were then infected with Neospora caninum tachyzoites at a concentration of 48,000 tachyzoites per well. This was followed by incubation at 37° C. under 5% CO2 for 24 hours.
The test compounds (0.5-1.5 mg) were weighed into 1.5 ml eppendorf vessels and dissolved in 1 ml dimethyl sulphoxide, corresponding to a dilution of about 1×10^−3 g ml^−1. The medium used for further dilution consisted of 87% RPMI 1640, 10% FCS, 1% L-glutamine, 1% sodium hydrogen carbonate, 1% penicillin/streptomycin. In the first screening, concentrations of […], […] and 10^−7 g ml^−1 were used. The diluted preparations were then transferred to the cell culture plates at a volume of 150 μl per well after 24 hour infection with Neospora caninum. For the first row, untreated medium was used; this row contained infected and uninfected cells as controls. The cell plate was incubated at 37° C. under 5% CO2 for 5 days. Microscopic evaluation was conducted 4 days after treatment and 5 days after infection at a magnification of 25×10 in an inverse microscope according to the following evaluation scheme.

A further assay relates to Eimeria tenella. As to the kind of experiment: Screening against Eimeria tenella cell cultures in vitro (chick kidney cells). More on the design: key: 3 = very active no intact parasites/well; 2 = active 1-6 parasites per well; 1 = weakly active up to 1 intact schizont/optical field of vision; 0 = inactive >1 intact schizont/optical field of vision; T = cytotoxic host cells are dead. To be noted: day 5 post infection. As for the experimental part: Cells from kidneys of 19 day old chicks are cultured as monolayers in 96-well plates (Falcon 3872) in a medium of Hanks lactalbumine hydrolysate, 5% fetal calf serum, 1% glutamine and 1% non-essential amino acids. After two days at 42° C. under 5% CO2, the culture was infected with excised sporozoites of Eimeria tenella at about […] per well. Test compounds were dissolved in DKSO and diluted with culture medium to a maximum end concentration of 10 μg ml^−1. The dilution steps were 1:10. On day 5 post infection, the cultures were evaluated under a microscope at 100-fold magnification and the condition of the host cells and the amount of intact schizonts and free merozoites was determined.

With `CC1CCC2C(C)C(F)OC3OC4(C)CCC1C32OO4` (stereo not drawn) [Example 1, 10β-fluoro-10-deoxo-10-dihydroartemisinin], in assay [1], the “In vitro activity: IC50” value worked out at 0.69 ng/mL and the “In vitro activity: IC90” value came to 0.98 ng/mL. Also, in assay [2], the “In vitro activity: IC50” value turned out to be 0.74 ng/mL and the “In vitro activity: IC90” value came to 1.36 ng/mL.
As to `CC1CCC2[C@@H](C)C(=O)OC3O[C@]4(C)CCC1C32OO4` (stereo partly drawn) [Artemisinin, artemisinin], the “Evaluation of effect against Neospora caninum” value (shortened to “Evaluation of effect”) with Neospora caninum (Dose 10^−5 g/ml) turned out to be 0. The results for the “Effectiveness rating against Eimeria tenella” value (“Effectiveness rating” below) in the assay on Eimeria tenella (Dose 10^−5 g/ml), with Eimeria tenella (Dose 10^−6 g/ml) and with Eimeria tenella (Dose 10^−7 g/ml) were 2 (2 = active 1-6 parasites per well), 1 (1 = weakly active up to 1 intact schizont/optical field of vision) and 0 (0 = inactive >1 intact schizont/optical field of vision), respectively.
Turning to `CC1CCC2C(C)C(Nc3ccccc3)OC3OC4(C)CCC1C32OO4` (stereo not drawn) [Example 15], the “Evaluation of effect” value in the assay with Neospora caninum (Dose 10^−6 g/ml) is 1; in the assay on Neospora caninum (Dose 10^−7 g/ml), 1; in the assay on Neospora caninum (Dose 10^−8 g/ml), 0. Also, the “Effectiveness rating” value with Eimeria tenella (Dose 10^−5 g/ml) was 2 (2 = active 1-6 parasites per well); with Eimeria tenella (Dose 10^−6 g/ml), 2 (2 = active 1-6 parasites per well); in the assay on Eimeria tenella (Dose 10^−7 g/ml), 1 (1 = weakly active up to 1 intact schizont/optical field of vision); in the assay on Eimeria tenella (Dose 10^−8 g/ml), 0 (0 = inactive >1 intact schizont/optical field of vision). Also, the “In vitro activity: (IC10)” value in assay [1] stood at 0.52 ng/mL; in assay [2], 0.48 ng/mL. The “In vitro activity: IC50” value came out at 0.66 ng/mL in assay [1] and 0.61 ng/mL in assay [2]. In addition, the “In vitro activity: IC90” value in assay [1] was found to be 0.84 ng/mL; in assay [2], 0.78 ng/mL.
With `COc1cc(OC)c(C2OC3OC4(C)CCC5C(C)CCC(C2C)C35OO4)c(OC)c1` (stereo not drawn) [Example 44], in assay [1], the “In vitro activity: (IC10)” value came to 0.13 ng/mL, the “In vitro activity: IC50” value is 0.3318 ng/mL and the “In vitro activity: IC90” value was determined as 0.8168 ng/mL. Further, in assay [2], the “In vitro activity: (IC10)” value was determined as 0.29 ng/mL, the “In vitro activity: IC50” value turned out to be 0.69 ng/mL and the “In vitro activity: IC90” value turned out to be 1.67 ng/mL.
For the compound `CCN(CC)C1OC2OC3(C)CCC4C(C)CCC(C1C)C24OO3` (stereo not drawn) [Example 26], the “ANALYSIS FIELD (AF): bound on the IC values in prescreen format” value in assay [1] (prescreen 3-dilution assay, 0.00 entered for IC values) is reported as 0.00; 0.00 AF < 4 ng/ml. In addition, in assay [2], the “In vitro activity: (IC10)” value turned out to be 5.05 ng/mL, the “In vitro activity: IC50” value was 9.05 ng/mL and the “In vitro activity: IC90” value worked out at 16.24 ng/mL.
`CC1CCC2C(C)C(Nc3ccc(F)cc3)OC3OC4(C)CCC1C32OO4` (stereo not drawn) [Example 16]: in assay [1], the “In vitro activity: (IC10)” value is 0.49 ng/mL, the “In vitro activity: IC50” value was 0.64 ng/mL and the “In vitro activity: IC90” value came out at 0.84 ng/mL. Besides, in assay [2], the “In vitro activity: (IC10)” value was 0.48 ng/mL, the “In vitro activity: IC50” value came out at 0.61 ng/mL and the “In vitro activity: IC90” value turned out to be 0.78 ng/mL.
In the case of `CC(NC1OC2OC3(C)CCC4C(C)CCC(C1C)C24OO3)c1ccccc1` (stereo not drawn) [Example 30], the “Evaluation of effect” value in the assay on Neospora caninum (Dose 10^−5 g/ml) stood at 1; with Neospora caninum (Dose 10^−6 g/ml), 0. The “Effectiveness rating” value in the assay on Eimeria tenella (Dose 10^−5 g/ml) is “T”; in the assay on Eimeria tenella (Dose 10^−6 g/ml), 2 (2 = active 1-6 parasites per well); in the assay with Eimeria tenella (Dose 10^−7 g/ml), 0 (0 = inactive >1 intact schizont/optical field of vision). Also, in assay [2], the “In vitro activity: (IC10)” value was 6.74 ng/mL. Also, in assay [2], the “In vitro activity: IC50” value turned out to be 11.20 ng/mL. The “In vitro activity: IC90” value in assay [2] stood at 18.61 ng/mL.
On to `COc1ccc(C2O[C@@H]3O[C@@]4(C)CC[C@H]5[C@H](C)CC[C@@H]([C@H]2C)[C@@]35OO4)c(OC)c1` (stereo partly drawn) [Example 4, 10-(2′,4′-dimethoxyphenyl)-10-deoxo-10-dihydroartemisinin], for which, in assay [1], the “In vitro activity: (IC10)” value was 0.40 ng/mL, the “In vitro activity: IC50” value is 0.84 ng/mL and the “In vitro activity: IC90” value worked out at 1.74 ng/mL. Moreover, in assay [2], the “In vitro activity: (IC10)” value was determined as 0.52 ng/mL, the “In vitro activity: IC50” value is 1.05 ng/mL and the “In vitro activity: IC90” value is 2.10 ng/mL.
`CC1CCC2C(C)C(NCc3ccccc3)OC3OC4(C)CCC1C32OO4` (stereo not drawn) [Example 21]: the “Evaluation of effect” value in the assay on Neospora caninum (Dose 10^−5 g/ml) was determined as 2. Besides, in the assay on Neospora caninum (Dose 10^−6 g/ml), the “Evaluation of effect” value was determined as 0. For the same compound, the “Effectiveness rating” value in the assay on Eimeria tenella (Dose 10^−6 g/ml) was 0 (0 = inactive >1 intact schizont/optical field of vision). Also, in assay [2], the “In vitro activity: (IC10)” value was found to be 0.79 ng/mL, the “In vitro activity: IC50” value was determined as 1.77 ng/mL and the “In vitro activity: IC90” value came to 3.96 ng/mL.
On to `COc1cc(OC)c(C2OC3OC4(C)CCC5C(C)CCC(C2C)C35OO4)c(OC)c1` (mixture of isomers) [Example 12], for which, in assay [1], the “In vitro activity: (IC10)” value worked out at 0.47 ng/mL, the “In vitro activity: IC50” value worked out at 0.78 ng/mL and the “In vitro activity: IC90” value turned out to be 1.32 ng/mL. In assay [2], the “In vitro activity: (IC10)” value came out at 0.35 ng/mL, the “In vitro activity: IC50” value turned out to be 0.77 ng/mL and the “In vitro activity: IC90” value was found to be 1.70 ng/mL.
On to `CC1CCC2C(C)C(c3ccc(Br)cc3)OC3OC4(C)CCC1C32OO4` (stereo not drawn) [Example 38], for which, in assay [1], the “In vitro activity: (IC10)” value is 0.55 ng/mL, the “In vitro activity: IC50” value stood at 1.23 ng/mL and the “In vitro activity: IC90” value came to 2.76 ng/mL. Further, in assay [2], the “In vitro activity: (IC10)” value is 0.22 ng/mL, the “In vitro activity: IC50” value was 0.90 ng/mL and the “In vitro activity: IC90” value came to 3.69 ng/mL.
